Assay results taken from article PMC3230693 (Nature structural & molecular biology, 2011).

What was measured:
[1] = molecular target: WT tEGFR (human EGFR aa 25–1022) (Homo sapiens, UniProt P00533); assay: Radiometric kinase inhibition assay, WT tEGFR; type: biochemical
[2] = molecular target: Δ746–750 tEGFR (Homo sapiens, UniProt P00533, DEL746-750)
[3] = molecular target: L858R tEGFR (Homo sapiens, UniProt P00533, L858R)
[4] = tested on: HEK293 GnTi− cells; assay: Expression of mutant tEGFRs in transfected cells; type: cell-based, human; conditions: 50 nM in culture medium; western blot
[5] = molecular target: L858R I706Q tEGFR (human)
[6] = tested on: EGFR catalytic domain; conditions: cited from earlier work
[7] = molecular target: Δ(746–750) I706Q tEGFR (human)

Nc1ncnc2c1ncn2[C@@H]1O[C@H](COP(=O)(O)OP(=O)(O)NP(=O)(O)O)[C@@H](O)[C@H]1O [AMP-PNP]
IC50 ([1]; WT tEGFR–EGF, 10 µM ATP, range stated for WT and mutant tEGFRs): 80 to 200 µM | Ki ([1]; read-out: Ki (deduced from IC50, ATP concentration and ATP Kmapp), WT tEGFR–EGF): 21 ± 5 µM | Ki fold higher compared with WT ([2]; Δ746–750 vs WT tEGFR, range stated for both mutants): 5–8 fold | IC50 ([2]; Δ(746–750) tEGFR–EGF, 10 µM ATP, range stated for WT and mutant tEGFRs): 80 to 200 µM | IC50 ([3]; L858R tEGFR–EGF, 10 µM ATP, range stated for WT and mutant tEGFRs): 80 to 200 µM | Ki fold higher compared with WT ([3]; L858R vs WT tEGFR, range stated for both mutants): 5–8 fold

C#Cc1cccc(Nc2ncnc3cc(OCCOC)c(OCCOC)cc23)c1 [erlotinib]
expression of L858R and Δ746–750 tEGFRs [4]: enhanced expression

L858R I706Q tEGFR (receptor)
kinase rate in the presence of EGF, against the single mutant L858R tEGFR [5]: 30 fold lower

Segment 1 of MIG6: MIG6 segment 1 (30mer, residues 334–364) peptide made by solid-phase peptide synthesis (SPKSLPSYLNGVMPPTQSFAPDPKYVSSKAL)
IC50 ([1]; EGF–bound WT tEGFR, phosphorylation of biotinylated substrate peptide): 100 µM | inhibition by MIG6 segment 1 ([2]; Δ(746–750) tEGFR–EGF, up to 100 µM): essentially resistant to inhibition | inhibition by MIG6 segment 1 ([3]; L858R tEGFR–EGF, up to 100 µM): essentially resistant to inhibition | affinity, fold weaker relative to segment 1+2 [6]: ~ 100 fold

Δ(746–750) I706Q tEGFR (receptor)
kinase rate of the EGF–bound form, against Δ746–750 tEGFR [7]: 5 fold lower
